Earlier results as cited in article PMC11887511 (Crystal Growth & Design, 2025).

Settings: no reference given

pKa1: 2.12
pKa2: 2.90
pKa[base]: 9.63
Compound: O=C(O)CNCC(=O)O [IDA, iminodiacetic acid]
